In US9187524B2, “Broad spectrum antibiotic arylomycin analogs” (The Scripps Research Institute, priority 2010, dated 2015):

Key:
[1] = tested on: S. epidermidis PAS9002 (SPase S31P); assay: microbe, parasite or virus in culture; format: cell-based
S. epidermidis = assay: Selection of arylomycin resistant S. epidermidis; format: cell-based; details: growth in the presence of 2 μg/ml (8×MIC)

SMILES: CCCCCCCCCCCCCCCC(=O)N(C)[C@H](CO)C(=O)N[C@H](C)C(=O)NCC(=O)N(C)[C@@H]1C(=O)N[C@@H](C)C(=O)N[C@H](C(=O)O)Cc2ccc(O)c(c2)-c2cc1ccc2O [Arylomycin C16]
- MIC ([1]; Staphylococcus epidermidis, read-out: MIC, S. epidermidis PAS9002): > 128 µg/mL
- fold elevated MIC compared to the wild type strain, Ser to Pro at position 31 ([1]; remainder of selected S. epidermidis mutants): greater than 256 fold
- frequency of resistant mutants (S. epidermidis): 4 per 109 viable cells
